Measurements taken from patent publication US20250170150A1, “OLFACTORY RECEPTOR 2A4/7 AGONIST FOR PROMOTING HAIR GROWTH AND IMPROVING AESTHETIC ASPECT” (GIULIANI S.P.A., priority 2022, published 2025).
Entries after “also recorded” stand apart in the source; their conditions may differ.

Assays:
[1] = test system: microdissected human scalp HFs; test: Organ culture of microdissected human HFs with CHS: OR2A4/7 expression and HF stem cell/progeny number by quantitative (immuno)histomorphometry; assay type: cell-based; settings: 50 μM CHS vs vehicle, 6 days
Method: Temporal and occipital human scalp skin was obtained from healthy donors (38-69 years old) undergoing routine face-lift surgery. Scalp skin samples were processed for HF microdissection (Edelkamp J, Gherardini J, Bertolini M, Methods to study human hair follicle growth ex vivo: human microdissected hair follicle and human full thickness skin organ culture, Methods Mol. Biol. 2154 (2020) 105-119).
Microdissected human scalp HFs were cultured at 37° C. with 5% CO2 in a minimal media of William's E media (WEM, Gibco, Life Technologies) supplemented with 2 mM of L-glutamine (Gibco), 10 ng/ml hydrocortisone (Sigma-Aldrich), 10 μg/ml insulin (Sigma-Aldrich), and 1% penicillin/streptomycin mix (Gibco) 25,26,62. After microdissection, the HFs were first incubated in WEM for 24 h for re-equilibration.
HFs after quality control (fully pigmented and presence in anagen VI phase) were randomly allocated to the different experimental groups.
After 24 h, WEM mediμm was replaced and HFs were treated with vehicle or 50 μM CHS for 6 days for (immuno) histomorphometry.
OCT-embedded samples were sectioned (6 μm thickness for HF and 7 μm thickness for skin) with a Leica cryostat. Sections obtained from the organ culture were stained using OR2A4/7 and integrin α-6 antibodies. A double-staining, […] wa salso performed. Sections without primary antibody were used as negative control. […]
Staining intensity was evaluated in well-defined reference areas by quantitative (immuno-) histomorphometry (Fischer T W, et al. Differential effects of caffeine on hair shaft elongation, matrix and outer root sheath keratinocyte proliferation, and transforming growth factor-B2/insulin-like growth factor-1-mediated regulation of the hair cycle in male and female human hair follicles in vitro. Br. J. Dermatol. 2014;171:1031-1043. doi: 10.1111/bjd.13114.; Samuelov L, et al. P-cadherin regulates human hair growth and cycling via canonical Wnt signaling and transforming growth factor-62. J. Invest. […]

[2] = test system: microdissected human scalp HFs; test: Organ culture of microdissected HFs with CHS: hair cycle staging and hair matrix keratinocyte proliferation (Ki-67/TUNEL, Masson Fontana); assay type: cell-based; settings: 50 μM CHS vs vehicle, 6 days
From the text: Temporal and occipital human scalp skin was obtained from healthy donors (38-69 years old) undergoing routine face-lift surgery. Scalp skin samples were processed for HF microdissection (Edelkamp J, Gherardini J, Bertolini M, Methods to study human hair follicle growth ex vivo: human microdissected hair follicle and human full thickness skin organ culture, Methods Mol. Biol. 2154 (2020) 105-119). […]
OCT-embedded samples were sectioned (6 μm thickness for HF and 7 μm thickness for skin) with a Leica cryostat. […] Images were taken using a Keyence fluorescence microscope BZ9100 (Osaka, Japan) maintaining a constant set exposure time throughout imaging for further analysis.
HFs were microscopically evaluated for the hair cycle staging analysis using Masson-Fontana histochemistry and Ki-67/TUNEL immunostainings (Langan EA, et al. Human hair follicle organ culture: theory, application and perpsectives. Exp. Dermatol. 2015;24:903-911. doi: 10.1111/exd.12836; Kloepper JE, et al. Methods in hair research: how to objectively distinguish between anagen and catagen in human hair follicle organ culture. Exp. Dermatol. 2010;19:305-312. doi: 10.1111/j.1600-0625.2009.00939.x;). […]

[3] = test system: OR2A4/7; test: Intracellular Ca2+ signals in human melanocytes; assay type: cell-based
[4] = test system: OR2A4/7; settings: screening approach, Tsai et al. 2017; cited from earlier work

With `O=C(OC1CCCCC1)c1ccccc1O` [CHS, cyclohexyl salicylate] the “OR2A4/7 protein expression in the HF bulb” value ([1]; ex vivo HFs (FIG. 2)) was “receptor downregulation”, the “K15+ stem cells in the basal layer of the bulge” value ([1]; ex vivo HFs (FIG. 3a)) was “did not seem to impact; also recorded: No differences” and the “CD34+ cells in the suprabulbar ORS” value ([1]; ex vivo HFs (FIG. 3b)) was “significantly increased”. For the same compound, the “HFs in anagen (hair cycle staging)” value ([2]; ex vivo HFs (FIG. 4a)) was “prolongs anagen; also recorded: increase”, the “hair matrix keratinocyte proliferation (Ki-67)” value ([2]; ex vivo HFs (FIG. 4b)) was “induces hair matrix keratinocyte proliferation” and the “intracellular Ca2+ signals” value [3] was “elicited transient intracellular Ca2+ signals”. For the same compound, the “agonism at OR2A4/7” value [4] was “specific agonist”.
